The source of these data is US20150359220A1, “COMPOSITIONS COMPRISING GOUGEROTIN AND A FUNGICIDE” (BAYER CROPSCIENCE LP, priority 2013, published 2015).

Experiment [1] has as its system parasites on animals, such as pin worm. To be noted: according to U.S. Pat. No. 3,849,398; cited from earlier work.
Experiment [2] deals with gram-positive, gram-negative bacteria and tubercule bacillus. To be noted: according to U.S. Pat. No. 3,849,398; cited from earlier work.
Experiment [3] relates to Botrytis cinerea. In words: Botrytis test (beans)/preventive. To be noted: Table 7, size of lesions 2 days after inoculation.
Description: After the spray coating has dried on, 2 small pieces of agar covered with growth of Botrytis cinerea are placed on each leaf. The inoculated plants are placed in a darkened chamber at 20° C. and a relative atmospheric humidity of 100%.
2 days after the inoculation, the size of the lesions on the leaves is evaluated.
For experiment [4], the system named is Blumeria graminis fsp. hordei. In words: Blumeria test (barley)/preventive. To be noted: Table 6; 125 ppm a.i.; 7 days after inoculation. Format: in vivo.
The subject of experiment [5] is Sphaerotheca fuliginea. In words: Sphaerotheca test (cucumbers)/preventive. To be noted: Table 20, 100 ppm a.i., 7 days after inoculation. It is filed as in vivo.
The subject of experiment [6] is Alternaria solani. The experiment can be described thus: Alternaria test (tomatoes)/preventive. Format: in vivo. To be noted: Table 4, 50 ppm a.i., 3 days after inoculation.
In experiment [7] the test system is Venturia inaequalis. In words: Venturia test (apples)/preventive.
Description: After the spray coating has dried on, the plants are inoculated with an aqueous conidia suspension of the causal agent of apple scab (Venturia inaequalis) and then remain for 1 day in an incubation cabinet at approximately 20° C. and a relative atmospheric humidity of 100%. The plants are then placed in a greenhouse at approximately 21° C. and a relative atmospheric humidity of approximately 90%.
The test is evaluated 10 days after the inoculation.
The subject of experiment [8] is Septoria tritici. The experiment can be described thus: Septoria tritici-test (wheat)/preventive. Format: in vivo. To be noted: Table 17, 21 days after inoculation.

SMILES strings stand for the structures.

Regarding `CNCC(=O)NC(CO)C(=O)NC1C(C(N)=O)OC(n2ccc(N)nc2=O)C(O)C1O` [gougerotin, 1-(4-Amino-2-oxo-1(2H)-pyrimidinyl)-1,4-dideoxy-4-[[N—(N-methylglycyl)-D-seryl]amino]-b-D-glucopyranuronamide], the parasiticidal action result in experiment [1] is given as “parasiticidal action”. Further, the antibacterial activity entry in experiment [2] is listed as “weak antibacterial activity”.
Consider `CCCN(CC)CC1COC2(CCC(C(C)(C)C)CC2)O1` (stereo not shown) [F46, spiroxamine], for which the results for the “Efficacy in % found” value in experiment [3] (100 ppm a.i.) and in experiment [4] were 14% and 11%, respectively. Also, the pest or weed control at 100 ppm in experiment [5] (Podosphaera fuliginea, 168 h, read-out: Efficacy in % found) stood at 30%. In addition, the pest or weed control at 50 ppm was determined as 46% in experiment [6] (Alternaria solani, topical, 72 h, read-out: Efficacy in % found) and 0% in experiment [7] (Venturia inaequalis, 240 h, read-out: Efficacy in % found).
For `N#Cc1ccccc1NC(=O)c1snc(Cl)c1Cl` [F187, isotianil], the “Efficacy in % found” value in experiment [3] (125 ppm a.i.) is on record as 40%; in experiment [5] it was 20%; in experiment [6], 18%; in experiment [7] (Table 21, 50 ppm a.i., 10 days after inoculation) it was 0%; in experiment [8] (250 ppm a.i.), 29%; in experiment [8] (500 ppm a.i.), 29%.
